Measured values reported in ChEMBL document CHEMBL2434826, “Multifunctional tacrine-flavonoid hybrids with cholinergic, β-amyloid-reducing, and metal chelating properties for the treatment of Alzheimer's disease” (Eur J Med Chem, 2013).
Calls of active or inactive are those of the source. No cut-off for these calls is given here.

How the values were obtained:
[1] = system: Radical scavenging activity; assay: Antioxidant activity assessed as DPPH radical scavenging activity at 2 mM relative to control; type: functional
[2] = biological target: T1, Amyloid-beta precursor protein (Homo sapiens, UniProt P05067); assay: Inhibition of amyloid beta (1 to 42) (unknown origin) self-induced aggregation at 20 uM after 48 hrs by thioflavin T fluorescence assay relative to control
T1 sequence (P05067 whole entry): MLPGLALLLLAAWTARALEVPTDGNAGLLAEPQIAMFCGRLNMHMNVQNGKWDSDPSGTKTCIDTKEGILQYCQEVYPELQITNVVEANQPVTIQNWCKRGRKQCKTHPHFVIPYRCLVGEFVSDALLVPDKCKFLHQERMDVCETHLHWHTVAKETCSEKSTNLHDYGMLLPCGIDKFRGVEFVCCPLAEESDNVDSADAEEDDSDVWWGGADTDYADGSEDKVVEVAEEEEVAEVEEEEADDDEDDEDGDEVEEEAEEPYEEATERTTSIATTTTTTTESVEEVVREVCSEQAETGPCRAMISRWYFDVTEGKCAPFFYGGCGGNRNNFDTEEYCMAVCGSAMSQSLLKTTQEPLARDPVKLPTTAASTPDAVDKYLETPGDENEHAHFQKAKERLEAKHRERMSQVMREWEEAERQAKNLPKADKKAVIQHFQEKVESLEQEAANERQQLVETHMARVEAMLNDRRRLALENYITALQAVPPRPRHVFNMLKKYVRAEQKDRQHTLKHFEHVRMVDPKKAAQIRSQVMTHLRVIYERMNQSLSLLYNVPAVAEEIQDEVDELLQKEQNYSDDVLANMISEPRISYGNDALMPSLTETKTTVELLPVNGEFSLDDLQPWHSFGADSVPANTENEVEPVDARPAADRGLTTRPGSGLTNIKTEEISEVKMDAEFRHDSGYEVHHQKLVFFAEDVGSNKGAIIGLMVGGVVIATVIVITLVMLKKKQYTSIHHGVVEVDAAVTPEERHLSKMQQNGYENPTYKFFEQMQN

[3] = biological target: T1, Amyloid-beta precursor protein
Description: Inhibition of amyloid beta (1 to 42) (unknown origin) self-induced aggregation after 48 hrs by thioflavin T fluorescence assay

[4] = biological target: Cholinesterase (Equus caballus, UniProt P81908)
Sequence of Cholinesterase (P81908 whole entry): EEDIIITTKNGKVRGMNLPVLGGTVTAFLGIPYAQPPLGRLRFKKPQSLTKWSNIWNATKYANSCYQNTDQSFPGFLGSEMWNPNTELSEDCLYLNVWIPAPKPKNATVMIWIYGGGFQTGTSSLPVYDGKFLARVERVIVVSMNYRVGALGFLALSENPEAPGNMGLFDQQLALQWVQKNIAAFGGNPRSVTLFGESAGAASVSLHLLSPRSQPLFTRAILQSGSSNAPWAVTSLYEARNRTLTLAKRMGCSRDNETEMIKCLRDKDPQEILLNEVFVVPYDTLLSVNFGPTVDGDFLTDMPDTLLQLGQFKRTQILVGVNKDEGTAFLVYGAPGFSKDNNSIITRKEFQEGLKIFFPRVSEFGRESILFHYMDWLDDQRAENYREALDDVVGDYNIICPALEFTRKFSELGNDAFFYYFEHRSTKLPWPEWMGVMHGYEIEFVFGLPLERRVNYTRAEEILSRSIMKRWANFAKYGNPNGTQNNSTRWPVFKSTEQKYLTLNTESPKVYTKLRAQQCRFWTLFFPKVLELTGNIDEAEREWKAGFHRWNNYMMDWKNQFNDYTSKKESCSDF
Description: Inhibition of equine serum BuChE using S-butyrylcholinesterase iodide as substrate preincubated for 6 mins followed by substrate addition by Ellmans method

[5] = biological target: Acetylcholinesterase (Electrophorus electricus, UniProt O42275)
Sequence of Acetylcholinesterase (O42275 whole entry): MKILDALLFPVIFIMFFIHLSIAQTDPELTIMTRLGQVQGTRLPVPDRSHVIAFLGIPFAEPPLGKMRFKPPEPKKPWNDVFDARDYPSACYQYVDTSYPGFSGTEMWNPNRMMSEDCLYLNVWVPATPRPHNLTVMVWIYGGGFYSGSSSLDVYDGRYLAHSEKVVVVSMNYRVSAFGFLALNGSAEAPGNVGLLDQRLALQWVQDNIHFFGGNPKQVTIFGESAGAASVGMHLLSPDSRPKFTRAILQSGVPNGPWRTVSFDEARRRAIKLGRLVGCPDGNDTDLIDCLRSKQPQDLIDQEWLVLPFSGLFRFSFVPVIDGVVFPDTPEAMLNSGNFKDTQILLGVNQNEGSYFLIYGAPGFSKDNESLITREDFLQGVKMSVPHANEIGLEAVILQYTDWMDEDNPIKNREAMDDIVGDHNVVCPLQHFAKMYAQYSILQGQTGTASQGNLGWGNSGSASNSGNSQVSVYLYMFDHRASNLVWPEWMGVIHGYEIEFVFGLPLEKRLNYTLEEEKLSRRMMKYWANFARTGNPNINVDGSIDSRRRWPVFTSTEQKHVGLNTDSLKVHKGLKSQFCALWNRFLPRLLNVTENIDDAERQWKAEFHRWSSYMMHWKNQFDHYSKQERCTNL
Description: Inhibition of electric eel AChE using acetylthiocholine iodide as substrate preincubated for 6 mins followed by substrate addition by Ellmans method

[6] = Cytotoxicity against human SH-SY5Y cells assessed as survival at 25 uM after 24 hrs by MTT assay relative to control; type: cell-based; settings: read-out: Survival
[7] = Cytotoxicity against human SH-SY5Y cells assessed as survival at 50 uM after 24 hrs by MTT assay relative to control; type: cell-based; settings: read-out: Survival
[8] = Cytotoxicity against human SH-SY5Y cells assessed as survival at 5 uM after 24 hrs by MTT assay relative to control; type: cell-based; settings: read-out: Survival
[9] = Cytotoxicity against human SH-SY5Y cells assessed as survival at 10 uM after 24 hrs by MTT assay relative to control; type: cell-based; settings: read-out: Survival
[10] = Cytotoxicity against human SH-SY5Y cells assessed as survival at 1 uM after 24 hrs by MTT assay relative to control; type: cell-based; settings: read-out: Survival
[11] = Metal chelating activity of the compound assessed as Cu2+-complex formation in methanol at 25 uM by UV-vis spectrophotometric analysis; type: functional
[12] = Metal chelating activity of the compound assessed as Fe2+-complex formation in methanol at 25 uM by UV-vis spectrophotometric analysis; type: functional
[13] = biological target: Cholinesterase (Equus caballus) (UniProt P81908); assay: Competitive inhibition of equine serum BuChE using […] as substrate at 22.5 to 90 nM by Lineweaver-Burk plot analysis
Sequence of Cholinesterase (Equus caballus) (P81908 whole entry): as the sequence (P81908 whole entry) above

[14] = biological target: Acetylcholinesterase (Electrophorus electricus) (UniProt O42275); settings: 7.7 to 30.8 nM
Sequence of Acetylcholinesterase (Electrophorus electricus) (O42275 24-633 limits assumed): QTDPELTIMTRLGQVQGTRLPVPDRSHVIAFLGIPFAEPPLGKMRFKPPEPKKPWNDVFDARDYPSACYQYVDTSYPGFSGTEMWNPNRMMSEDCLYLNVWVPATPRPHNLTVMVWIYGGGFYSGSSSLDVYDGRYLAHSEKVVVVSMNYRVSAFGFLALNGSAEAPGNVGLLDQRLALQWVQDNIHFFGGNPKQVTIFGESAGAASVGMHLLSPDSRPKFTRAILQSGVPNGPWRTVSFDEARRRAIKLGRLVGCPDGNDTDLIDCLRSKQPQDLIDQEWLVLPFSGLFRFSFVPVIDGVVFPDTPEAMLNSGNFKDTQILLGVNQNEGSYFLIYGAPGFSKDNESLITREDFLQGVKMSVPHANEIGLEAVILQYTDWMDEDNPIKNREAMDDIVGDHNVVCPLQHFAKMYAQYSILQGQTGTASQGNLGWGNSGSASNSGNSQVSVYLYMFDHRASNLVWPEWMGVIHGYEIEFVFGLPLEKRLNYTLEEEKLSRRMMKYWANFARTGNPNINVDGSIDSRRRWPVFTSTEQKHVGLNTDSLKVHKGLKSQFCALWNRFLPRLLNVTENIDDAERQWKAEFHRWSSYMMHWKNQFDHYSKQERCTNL

[15] = biological target: Acetylcholinesterase (Electrophorus electricus) (UniProt O42275); assay: Potency index, ratio of tacrine IC50 to compound IC50 for electric eel AChE
[16] = biological target: Acetylcholinesterase (Electrophorus electricus) (UniProt O42275); assay: Potency index, ratio of galanthamine IC50 to compound IC50 for electric eel AChE
[17] = biological target: Cholinesterase (Equus caballus) (UniProt P81908); assay: Potency index, ratio of tacrine IC50 to compound IC50 for equine serum BuChE
[18] = biological target: Cholinesterase (Equus caballus) (UniProt P81908); assay: Potency index, ratio of galanthamine IC50 to compound IC50 for equine serum BuChE

Compound	Activity [1] [%]	inhibition [2] [%]	IC50 [3] [nM]	IC50 [4] [nM]	IC50 [5] [nM]	other results
O=c1cc(-c2ccccc2)oc2cc(OCCCN3CCN(CCCNc4c5c(nc6ccccc46)CCCC5)CC3)ccc12	< 36	58	14900	208	153	
O=c1cc(-c2ccccc2)oc2cc(OCCCCCN3CCN(CCNc4c5c(nc6ccccc46)CCCC5)CC3)ccc12	< 36	65.4	12800	258	568	
O=c1cc(-c2ccc(Cl)cc2)oc2cc(OCCCN3CCN(CCCNc4c5c(nc6ccccc46)CCCC5)CC3)ccc12	< 36	48.9		994	40.1	
O=c1cc(-c2ccccc2)oc2cc(OCCCN3CCN(CCCNc4c5c(nc6ccccc46)CCCC5)CC3)cc(O)c12	< 36	79.1	6500	558	133	viability at 24 h, 25 µM [6]: 92.7%; viability at 24 h, 50 µM [7]: 90.1%; viability at 24 h, 5 µM [8]: 96.5%; viability at 24 h, 10 µM [9]: 94.4%; viability at 24 h, 1 µM [10]: 97.3%; Activity [11]: Active; Activity [12]: Active
Cc1ccc(-c2cc(=O)c3ccc(OCCCN4CCN(CCCNc5c6c(nc7ccccc57)CCCC6)CC4)cc3o2)cc1	< 36	13.4		573	316	
O=c1cc(-c2ccccc2)oc2cc(OCCN3CCN(CCNc4c5c(nc6ccccc46)CCCC5)CC3)ccc12	< 36	54.1	16800	520	481	
Nc1ccc(-c2cc(=O)c3ccc(OCCCN4CCN(CCCNc5c6c(nc7ccccc57)CCCC6)CC4)cc3o2)cc1	< 36	9		685	336	
O=c1cc(-c2ccccc2)oc2cc(OCCCCCCN3CCN(CCCNc4c5c(nc6ccccc46)CCCC5)CC3)ccc12	< 36	63	13500	414	848	
O=c1ccoc2cc(OCCCN3CCN(CCCNc4c5c(nc6ccccc46)CCCC5)CC3)cc(O)c12	< 36	85.3	4800	45	15.4	inhibition [13]: Active; inhibition [14]: Active
COc1cc(OCCCN2CCN(CCCNc3c4c(nc5ccccc35)CCCC4)CC2)cc2occc(=O)c12	< 36	62	12600	35	8.4	Ratio IC50 [15]: 31; Ratio IC50 [16]: 318
CN(C)c1ccc(-c2cc(=O)c3ccc(OCCCN4CCN(CCCNc5c6c(nc7ccccc57)CCCC6)CC4)cc3o2)cc1	< 36	12.2		845	230	
O=c1ccoc2cc(OCCCN3CCN(CCCNc4c5c(nc6ccccc46)CCCC5)CC3)ccc12	< 36	67.4	11500	25.8	10.3	Ratio IC50 [17]: 2; Ratio IC50 [18]: 508
O=c1cc(-c2ccc([N+](=O)[O-])cc2)oc2cc(OCCCN3CCN(CCCNc4c5c(nc6ccccc46)CCCC5)CC3)ccc12	< 36	61.1	14100	460	75	
O=c1cc(-c2ccccc2)oc2cc(OCCCN3CCN(CCNc4c5c(nc6ccccc46)CCCC5)CC3)ccc12	< 36	59.1	13700	311	624	
O=c1cc(-c2ccccc2)oc2cc(OCCCCCCN3CCN(CCNc4c5c(nc6ccccc46)CCCC5)CC3)ccc12	< 36	63.3	14200	289	717	
O=c1cc(-c2ccccc2)oc2cc(OCCCCN3CCN(CCNc4c5c(nc6ccccc46)CCCC5)CC3)ccc12	< 36	53.7	16400	197	268	
COc1cc(OCCCN2CCN(CCCNc3c4c(nc5ccccc35)CCCC4)CC2)cc2oc(-c3ccccc3)cc(=O)c12	< 36	68.7	9600	360	57.7	
O=c1cc(-c2ccccc2)oc2cc(OCCCCCN3CCN(CCCNc4c5c(nc6ccccc46)CCCC5)CC3)ccc12	< 36	62.5	13200	423	594	
O=c1cc(-c2ccccc2)oc2cc(OCCCCN3CCN(CCCNc4c5c(nc6ccccc46)CCCC5)CC3)ccc12	< 36	53.4	17300	317	547	
O=c1cc(-c2ccccc2)oc2cc(OCCN3CCN(CCCNc4c5c(nc6ccccc46)CCCC5)CC3)ccc12	< 36	70	9800	266	416	
COc1ccc(-c2cc(=O)c3ccc(OCCCN4CCN(CCCNc5c6c(nc7ccccc57)CCCC6)CC4)cc3o2)cc1	< 36	10.9		655	417	
O=c1cc(-c2ccccc2)oc2cc(O)ccc12 [7-HYDROXYFLAVONE]		27.2		> 100000	85000	
